Read-outs that look alike come from different tables or passages of the source.
Key:
[1] = log D by fluorescence-based shake-flask method, octanol/phosphate buffer pH 7.4; format: physicochemical; settings: for enhanced partitioning into octanol compared with aqueous buffer, relative to parent compound: methyl analogue vs parent rhodamine B / rhodamine 101; for logD: octanol/phosphate buffer (1:1), octanol/buffer pH 7.4, fluorescence-based shake-flask, 24 h, 25 °C
Description: Values of log D were measured by dissolution of solids in 1:1 octanol/phosphate buffer (4 mL total volume, 5 mM phosphate, pH 7.4) to provide 5 mM solutions of the fluorophore. Samples were shaken for 24 h at 25 °C to equilibrate. […] Aliquots of these fractions were diluted in octanol (derived from the top fraction) or buffer (derived bottom fraction) to generate stock solutions (10×) appropriate for analysis. These stock solutions were further diluted 10-fold and analyzed in a solvent mixture comprising ethanol (80%), octanol (10%), and phosphate buffer (10%, pH 7.4). The ratio of fluorescence emission at λmax was used to calculate log D.

[2] = test system: mitochondria in living C. elegans; assay: Confocal laser scanning microscopy of living adult C. elegans treated with fluorophores; format: in vivo; settings: for bioaccumulation among the fluorophores examined: 100 pM or 1 nM, 20× objective; for selectivity of intracellular staining: living C. elegans; for time to observable fluorescence in some animals / time until most animals became fluorescent: living adult C. elegans
[3] = Quantum yield by the method of Williams in MeOH; format: physicochemical; settings: relative to rhodamine B and rhodamine 6G
Description: (§1) The red-shifted spectra of HR101 10 compared with HRB 9 can be explained by greater delocalization of the lone pairs on nitrogen due to restricted rotation about C–N bonds conferred by the fused rings of 10. By using the method of Williams, the quantum yields of 9 and 10 were determined relative to rhodamine B (5) and rhodamine 6G (7, Figure 3, panels A and B), and the extinction coefficients of these compounds were quantified (Figure 3, panel C). The replacement of the carboxylate of rhodamine B (5) and rhodamine 101 (8) with a methyl group slightly red shifted the absorbance and emission spectra in methanol (5 nm and 8 to 9 nm, respectively). […] Additionally, a modest reduction in quantum yield of ~0.3 for both fluorophores was observed.
(§2) Figure 3 Linear regression used to determine spectroscopic parameters of HRB 9 and HR101 10 in MeOH. Panels A and B: Determination of quantum yields relative to rhodamine B (5) and rhodamine 6G (7). Panel C: Quantification of molar extinction coefficients. TEXT PRINTED IN THE PICTURE: (A) RhB 5: Φ = 0.69 | (A) Rh6G 7: Φ = 0.93 | (B) HRB 9: Φ = 0.39 | (B) HR101 10: Φ = 0.60 | (C) HRB 9: ε555 nm = 83,000 M^-1 cm^-1 | (C) HR101 10: ε576 nm = 107,000 M^-1 cm^-1

[4] = Molar extinction coefficient by linear regression of absorbance; format: physicochemical
Description: as §1, §2

C. elegans = settings: N2, C. elegans, in vivo, 2 h
[5] = octanol/neutral buffer, cited from earlier work
[6] = MeOH; cited from earlier work
[7] = parameters: method as in PMID 15571431; settings: 545 nm in ethanol; cited from earlier work

In the case of `Cc1ccccc1C1=c2cc3c4c(c2Oc2c1cc1c5c2CCCN5CCC1)CCC[N+]=4CCC3` [HR101 10, 16-(2-Methylphenyl)-3-oxa-9,23-diazaheptacyclo[17.7.1.1^{5,9}.0^{2,17}.0^{4,15}.0^{23,27}.0^{13,28}]octacosa-1(27),2(17),4,9(28),13,15,18-heptaen-9-ium], the “enhanced partitioning into octanol compared with aqueous buffer, relative to parent compound” value [1] is reported as at least 10 fold, the logD [1] is reported as 6.2 and the “bioaccumulation among the fluorophores examined” value ([2]; 2 h) is reported as “highest bioaccumulation”. The “selectivity of intracellular staining” value ([2]; 2 h) was “most specific mitochondrial stains”, the “time to observable fluorescence in some animals” value [2] was at most 30 min and the “time until most animals became fluorescent” value [2] was at most 2 h. For the same compound, the “quantum yield Φ” value [3] was 0.60, the “molar extinction coefficient ε576 nm” value ([4]; 576 nm in MeOH) was 107,000 M^-1 cm^-1 and the “concentration conferring some toxicity” value (C. elegans) was at least 1000 µM.

For `CCOC(=O)c1ccccc1-c1c2ccc(=[N+](CC)CC)cc-2oc2cc(N(CC)CC)ccc12` [Basic Violet 11 (6), basic violet 11, reference compound], the “bioaccumulation among the fluorophores examined” value ([2]; 2 h) was “highest bioaccumulation” and the “selectivity of intracellular staining” value ([2]; 2 h) was “low selectivity”.

In the case of `CC/N=c1\cc2oc3cc(NCC)c(C)cc3c(-c3ccccc3C(=O)OCC)c-2cc1C` [Rhodamine 6G (7), rhodamine 6G], the “selectivity of intracellular staining” value ([2]; 2 h) is listed as “most specific mitochondrial stains”, the “log D octanol/buffer” value ([5]; ref 37) is listed as 2.1 [37] and the “quantum yield Φ (standard)” value [6] is listed as 0.93.

With `O=C([O-])c1ccccc1C1=c2cc3c4c(c2Oc2c1cc1c5c2CCCN5CCC1)CCC[N+]=4CCC3` [Rhodamine 101 (8), rhodamine 101] the logD [1] was 5.2 and the “penetration into germline, cells and tissues” value ([2]; 60× objective, 2 h, rhodamine 101 at 100-fold higher concentration than HRB 9 and HR101 10) was “did not penetrate into the germline”.

In the case of `COC(=O)c1ccccc1-c1c2ccc(=N)cc-2oc2cc(N)ccc12` [Rhodamine 123 (4), rhodamine 123], the “log D octanol/buffer” value ([5]; listed as rhodamine 123 (4)) is given as −0.62, the “log D octanol/buffer” value ([5]; ref 9) is given as −0.6 and the “log D octanol/buffer” value ([5]; ref 37) is given as 0.5.

In the case of rhodamine B [Rhodamine B (5)], the “log D octanol/buffer” value ([5]; ref 46) is given as 2.3 [46], the “quantum yield Φ (standard)” value [6] is given as 0.69 and the molar extinction coefficient [7] is given as 106,000 M^−1 cm^−1.

In the case of `CCN(CC)c1ccc2c(-c3ccccc3C)c3ccc(=[N+](CC)CC)cc-3oc2c1` [HRB 9, 6-(Diethylamino)-N,N-diethyl-9-(2-methylphenyl)-3H-xanthen-3-imine], the “enhanced partitioning into octanol compared with aqueous buffer, relative to parent compound” value [1] is reported as at least 10 fold, the logD [1] is reported as 5.9 and the “bioaccumulation among the fluorophores examined” value ([2]; 2 h) is reported as “highest bioaccumulation”. The “selectivity of intracellular staining” value ([2]; 2 h) was “most specific mitochondrial stains”, the “time to observable fluorescence in some animals” value [2] was at most 30 min and the “time until most animals became fluorescent” value [2] was at most 2 h. For the same compound, the “quantum yield Φ” value [3] was 0.39, the “molar extinction coefficient ε555 nm” value ([4]; 555 nm in methanol) was 83,000 M^-1 cm^-1 and the “concentration conferring some toxicity” value (C. elegans) was at least 1000 µM.
